From the NIST ThermoML archive (doi:10.1016/j.tca.2013.08.031)

Assay: molar heat capacity at constant volume
Details: Fluid (supercritical or subcritical phases), Vacuum adiabatic calorimetry

CCC(C)O (stereo unspecified) [butan-2-ol]
Details	molar heat capacity at constant volume [J/K/mol]
538.48 K, Mass density=279.19 kg/m3	275.36
538.48 K, Mass density=284.93 kg/m3	266.32
538.48 K, Mass density=286.65 kg/m3	296.63
538.48 K, Mass density=301.19 kg/m3	256.46
538.66 K, Mass density=117 kg/m3	318.5
538.66 K, Mass density=284.93 kg/m3	265.65
538.66 K, Mass density=286.65 kg/m3	296.86
538.66 K, Mass density=301.19 kg/m3	250.53
538.84 K, Mass density=117 kg/m3	306.2
538.84 K, Mass density=286.65 kg/m3	297.08
539.03 K, Mass density=286.65 kg/m3	296.34
539.57 K, Mass density=286.65 kg/m3	285.07
539.76 K, Mass density=279.19 kg/m3	283.52
539.76 K, Mass density=286.65 kg/m3	288.78
539.94 K, Mass density=184.89 kg/m3	261.35
539.94 K, Mass density=276.45 kg/m3	295.89
539.94 K, Mass density=279.19 kg/m3	284.48
539.94 K, Mass density=286.65 kg/m3	282.33
540.12 K, Mass density=184.89 kg/m3	273.06
540.12 K, Mass density=276.45 kg/m3	293.89
540.12 K, Mass density=279.19 kg/m3	283.74
540.12 K, Mass density=286.65 kg/m3	282.03
540.12 K, Mass density=403.55 kg/m3	223.85
540.3 K, Mass density=184.89 kg/m3	272.25
540.3 K, Mass density=276.45 kg/m3	297.6
540.3 K, Mass density=286.65 kg/m3	280.4
540.3 K, Mass density=403.55 kg/m3	225.33
540.48 K, Mass density=184.89 kg/m3	275.73
540.48 K, Mass density=276.45 kg/m3	293.15
540.48 K, Mass density=403.55 kg/m3	226.81
540.67 K, Mass density=184.89 kg/m3	280.18
540.67 K, Mass density=279.19 kg/m3	274.92
540.67 K, Mass density=403.55 kg/m3	223.85
540.85 K, Mass density=184.89 kg/m3	275.21
540.85 K, Mass density=279.19 kg/m3	281.29
540.85 K, Mass density=403.55 kg/m3	223.11
541.03 K, Mass density=279.19 kg/m3	276.47
541.03 K, Mass density=403.55 kg/m3	220.88
541.21 K, Mass density=279.19 kg/m3	278.4
541.4 K, Mass density=279.19 kg/m3	276.92
542.67 K, Mass density=301.19 kg/m3	240.15
542.85 K, Mass density=301.19 kg/m3	240.9
543.03 K, Mass density=301.19 kg/m3	240.15
547.21 K, Mass density=286.65 kg/m3	273.21
547.39 K, Mass density=286.65 kg/m3	272.69
547.57 K, Mass density=284.93 kg/m3	247.34
547.57 K, Mass density=286.65 kg/m3	276.33
547.75 K, Mass density=284.93 kg/m3	250.31
547.75 K, Mass density=286.65 kg/m3	276.62
547.93 K, Mass density=284.93 kg/m3	248.31
547.93 K, Mass density=286.65 kg/m3	276.1
548.11 K, Mass density=284.93 kg/m3	247.79
548.11 K, Mass density=286.65 kg/m3	276.33
548.11 K, Mass density=347.06 kg/m3	235.71
548.29 K, Mass density=284.93 kg/m3	248.68
548.29 K, Mass density=286.65 kg/m3	278.03
548.29 K, Mass density=347.06 kg/m3	236.45
548.47 K, Mass density=284.93 kg/m3	248.31
548.47 K, Mass density=286.65 kg/m3	278.55
548.47 K, Mass density=347.06 kg/m3	235.71
548.65 K, Mass density=286.65 kg/m3	278.03
548.65 K, Mass density=347.06 kg/m3	234.22
550.28 K, Mass density=284.93 kg/m3	236.74
550.46 K, Mass density=284.93 kg/m3	238.08
550.46 K, Mass density=403.55 kg/m3	218.66
550.64 K, Mass density=403.55 kg/m3	217.92
550.82 K, Mass density=284.93 kg/m3	236.52
550.82 K, Mass density=403.55 kg/m3	220.88
551 K, Mass density=284.93 kg/m3	236.3
551 K, Mass density=403.55 kg/m3	220.88
551.18 K, Mass density=403.55 kg/m3	220.14
551.36 K, Mass density=403.55 kg/m3	220.88
557.3 K, Mass density=286.65 kg/m3	252.16
557.3 K, Mass density=347.06 kg/m3	220.14
557.48 K, Mass density=286.65 kg/m3	253.13
557.48 K, Mass density=347.06 kg/m3	220.88
557.66 K, Mass density=286.65 kg/m3	251.94
557.66 K, Mass density=347.06 kg/m3	217.92
557.84 K, Mass density=286.65 kg/m3	252.16
557.84 K, Mass density=347.06 kg/m3	220.14
558.02 K, Mass density=286.65 kg/m3	253.64
558.2 K, Mass density=284.93 kg/m3	236.45
558.2 K, Mass density=286.65 kg/m3	258.98
558.38 K, Mass density=284.93 kg/m3	243.27
558.38 K, Mass density=286.65 kg/m3	261.43
558.56 K, Mass density=284.93 kg/m3	241.49
558.56 K, Mass density=286.65 kg/m3	257.05
558.74 K, Mass density=284.93 kg/m3	241.71
558.74 K, Mass density=286.65 kg/m3	258.02
558.92 K, Mass density=284.93 kg/m3	246.38
558.92 K, Mass density=286.65 kg/m3	259.28
559.09 K, Mass density=286.65 kg/m3	264.39
559.27 K, Mass density=286.65 kg/m3	254.83
559.45 K, Mass density=286.65 kg/m3	252.68
559.63 K, Mass density=286.65 kg/m3	264.39
560.64 K, Mass density=284.93 kg/m3	246.75
560.89 K, Mass density=286.65 kg/m3	262.17
561.24 K, Mass density=286.65 kg/m3	254.83
561.42 K, Mass density=286.65 kg/m3	257.28
561.6 K, Mass density=286.65 kg/m3	257.79
561.78 K, Mass density=286.65 kg/m3	256.83
561.96 K, Mass density=286.65 kg/m3	257.57
562.14 K, Mass density=286.65 kg/m3	257.05
562.32 K, Mass density=286.65 kg/m3	258.98
562.49 K, Mass density=286.65 kg/m3	254.61
562.67 K, Mass density=286.65 kg/m3	256.61
